In patent US10577362B2, “Substituted 2, 4-diamino-quinoline derivatives for use in the treatment of proliferative diseases” (GENOSCIENCE PHARMA, priority 2016, dated 2020) one finds viability and EC50 data, which are given here for 4 compounds.

The subject of assay [1] is Huh7 (hepatocellular carcinoma) cell line. Kind of assay: CellTiter-Glo luminescent cell viability assay, Huh7. Format: cell-based, human. The settings on record: Homo sapiens, Huh-7; for viability at 4 µM: Huh7, compound at 4 μM; for viability at 4 µM / viability at 10 µM: 72 h; for viability at 10 µM: Huh7, compound at 10 μM; for EC50: Huh7 cell line, 72 h incubation, CellTiter-Glo, read-out: EC50, growth inhibition of Huh7. In a few lines:
(§1)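 Luminescent signal, normalised to diluent-treated cultures, defines % viability; EC50 is the concentration lowering it to 50%. Cells had been exposed to compound for 72 h at 37 °C in medium with 10% FBS, at a constant H2O or DMSO percentage.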
On the technique in general: Cellular ATP, detected with luciferase, serves as a proxy for viable cell number.

Assay [2] deals with A375 (malignant melanoma) cell line. Kind of assay: CellTiter-Glo luminescent cell viability assay, A375. The settings on record: Homo sapiens, A-375; for viability at 4 µM: A375, compound at 4 μM; for viability at 4 µM / viability at 10 µM: 72 h; for viability at 10 µM: A375, compound at 10 μM; for EC50: A375 cell line, 72 h incubation, CellTiter-Glo, read-out: EC50, growth inhibition of A375. Format: cell-based, human. In a few lines:
(§2)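 72 h compound exposure, 37 °C, 5% CO2, 10% FBS medium; ATP luminescence read after 30 min RT equilibration. Viability as % of H2O/DMSO diluent control; EC50 = dose giving 50% of control signal. Duplicate points minimum.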

The subject of assay [3] is MOLM-14 (acute myeloid leukemia) cell line. Kind of assay: CellTiter-Glo luminescent cell viability assay, MOLM-14. Format: cell-based, human. As to conditions: Homo sapiens; for viability at 4 µM: MOLM-14, compound at 4 μM; for viability at 4 µM / viability at 10 µM: 72 h; for viability at 10 µM: MOLM-14, compound at 10 μM; for EC50: MOLM-14 cell line, 72 h incubation, CellTiter-Glo, read-out: EC50, growth inhibition of MOLM-14. Summed up:
as §1

Assay [4] has as its system PANC-1 (prancreatic carcinoma) cell line. Kind of assay: CellTiter-Glo luminescent cell viability assay, PANC-1. Format: cell-based. The settings on record: Homo sapiens; for viability at 4 µM: PANC-1, 4 μM; for viability at 4 µM / viability at 10 µM: 72 h, % of signal of diluent-treated cultures; for viability at 10 µM: PANC-1, 10 μM; for EC50: PANC-1 cell line, 72 h incubation, CellTiter-Glo, read-out: EC50 (growth inhibition assay of PANC-1 cell line). Summed up:
as §1

The test system of assay [5] is 786-O (renal adenocarcinoma) cell line. Kind of assay: CellTiter-Glo luminescent cell viability assay, 786-O. As to conditions: Homo sapiens, 786-0; for EC50: 786-O cell line, 72 h incubation, CellTiter-Glo, read-out: EC50, growth inhibition of 786-O; for viability at 4 µM / viability at 10 µM: 786-O, 72 h; for viability at 4 µM: compound at 4 μM; for viability at 10 µM: compound at 10 μM. The format is cell-based, human. Summed up:
as §2

Assay [6] relates to HepG2 (hepatocellular carcinoma) cell line. Kind of assay: CellTiter-Glo luminescent cell viability assay, HepG2. The settings on record: Homo sapiens; for viability at 4 µM / viability at 10 µM: HepG2, HepG, 72 h; for viability at 4 µM: compound at 4 μM; for viability at 10 µM: compound at 10 μM; for EC50: HepG2 cell line, 72 h incubation, CellTiter-Glo, read-out: EC50, growth inhibition of HepG2. The format is cell-based, human. Summed up: as §1

In assay [7] the test system is HCT-116 (colorectal carcinoma) cell line. Kind of assay: CellTiter-Glo luminescent cell viability assay, HCT-116. The format is cell-based, human. As to conditions: Homo sapiens; for viability at 4 µM: HCT-116, compound at 4 μM; for viability at 4 µM / viability at 10 µM: 72 h; for viability at 10 µM: HCT-116, compound at 10 μM; for EC50: HCT-116 cell line, 72 h incubation, CellTiter-Glo, read-out: EC50, growth inhibition of HCT-116. In a few lines: as §2

Each structure is given as a SMILES string.

By viability is commonly meant a read-out of living cells in per cent, often relative to untreated cells. A word on the EC50: it is the concentration that produces a half-maximal response. As to `CC(C)(C)NC1CCN(c2c(C#N)c(Nc3ccccc3)nc3ccccc23)CC1` [Compound 3246CN, 2-(phenylamino)-3-cyano-4-[4-(tert-butylamino)piperidin-1-yl]quinoline], the viability at 4 µM in assay [1] amounted to 67.7%; in assay [2], 66.2%; in assay [3], 91.9%; in assay [4] it was 88.2%; in assay [5] it was 59%; in assay [6], 53.2%. In assay [7], the viability at 4 µM came out at 3%. In addition, the viability at 10 µM in assay [1] is 0.6%; in assay [2], 0.2%; in assay [3] it was 3.1%; in assay [4], 38.8%; in assay [5], 0.2%; in assay [6], 0.2%. Also, the viability at 10 µM in assay [7] stood at 0.1%. Also, the 50% effective concentration (EC50) lay within 0.5 to 5 µM in assay [1]; 0.5 to 5 µM in assay [2]; 5 to 10 µM in assay [3]; 5 to 10 µM in assay [4]; 5 to 10 µM in assay [5]; 0.5 to 5 µM in assay [6]. Also, the 50% effective concentration (EC50) in assay [7] lay in the range of 0.5 to 5 µM.

For the compound `CC(C)NC1CCCN(c2c(C#N)c(NCc3ccc(Cl)cc3)nc3ccccc23)C1` (centres unmarked) [Compound 3160CN, 2-(4-chlorobenzylamino)-3-cyano-4-[3-(isopropylamino)piperidin-1-yl]quinoline], the viability at 4 µM stood at 80.8% in assay [1]; 18.2% in assay [2]; 88.7% in assay [3]; 96.1% in assay [4]; 65.2% in assay [5]; 62.1% in assay [6]. For the same compound, in assay [7], the viability at 4 µM is 57.7%. The viability at 10 µM in assay [1] was 0.5%; in assay [2], 0.4%; in assay [3], 0.6%; in assay [4], 1.2%; in assay [5], 0.5%; in assay [6], 0.5%. Moreover, the viability at 10 µM in assay [7] amounted to 0.4%. For the same compound, the concentration giving a half-maximal response (EC50) was 5 to 10 µM in assay [1]; 0.5 to 5 µM in assay [2]; 5 to 10 µM in assay [3]; 5 to 10 µM in assay [4]; 5 to 10 µM in assay [5]; 0.5 to 5 µM in assay [6]. Besides, the EC50 in assay [7] is 0.5 to 5 µM.

For the compound `COc1ccc(Nc2nc3ccccc3c(N3CCC(NC(C)(C)C)CC3)c2C#N)cc1` [Compound 3252CN, 2-(4-methoxyphenylamino)-3-cyano-4-[4-(tert-butylamino)piperidin-1-yl]quinoline], the viability at 4 µM turned out to be 80.6% in assay [1]; 20% in assay [2]; 80.2% in assay [3]; 94.7% in assay [4]; 74.2% in assay [5]; 68.4% in assay [6]. In addition, the viability at 4 µM in assay [7] is 2.5%. For the same compound, the viability at 10 µM stood at 2.9% in assay [1]; 0.2% in assay [2]; 0.7% in assay [3]; 47.9% in assay [4]; 0.3% in assay [5]; 0.3% in assay [6]. Also, the viability at 10 µM in assay [7] came to 0.2%. In addition, the EC50 in assay [1] fell in the range of 5 to 10 µM; in assay [2], 0.5 to 5 µM; in assay [3] it was 5 to 10 µM; in assay [4] it was 5 to 10 µM; in assay [5], 0.5 to 5 µM; in assay [6], 5 to 10 µM. For the same compound, in assay [7], the 50% effective concentration (EC50) was 0.5 to 5 µM.

On to `CC(C)(C)NC1CCN(c2c(C#N)c(NCc3ccccn3)nc3ccccc23)CC1` [Compound 3308CN, 2-[(pyridin-2-ylmethyl)amino]-3-cyano-4-[4-(tert-butylamino)piperidin-1-yl]quinoline], for which the viability at 4 µM in assay [1] is 88.6%; in assay [2], 96.3%; in assay [3], 85.8%; in assay [4] it was 102%; in assay [5], 101%; in assay [6] it was 92.6%. Besides, the viability at 4 µM in assay [7] worked out at 72.8%. Also, the viability at 10 µM in assay [1] stood at 74.2%; in assay [2], 67.7%; in assay [3], 57.1%; in assay [4], 99.1%; in assay [5] it was 81.1%; in assay [6], 76.5%. Further, the viability at 10 µM in assay [7] is 32.9%.
